Laboratory results: the OPERA property sets (Mansouri et al. 2018)
≈ marks a conversion by molar mass, not a printed value.

Settings: not given

For `C=CCOc1ccccc1OCC(CNC(C)C)OC(=O)C(C)C` (configuration not stated), which logP is on record?
The logP was 3.77.

With `CC[n+]1c(-c2ccccc2)c2cc(N)ccc2c2ccc(N)cc21.[Br-]` as the molecule, how does the solubility read?
The solubility was 50.7 mM.

For `CCC(=O)OCC1OC(n2cnc3c(OC)ncnc32)C(OC(=O)CC)C1OC(=O)CC` (configuration not stated), which logP is on record?
The logP was 2.75.

Which logP does the source give for `CC(C)(C)c1cccc(OP(=O)(Oc2ccccc2)Oc2ccccc2)c1` here?
Its logP is 5.12.

With `CNC(=O)CCc1ccccc1` as the molecule, how does the logP read?
The logP was 1.17.

For `Clc1ccc2ccccc2c1`, which logP is on record?
Its logP is 3.9.

For `Nc1ncnc2c1ncn2C1OC2COP(=O)(OCc3ccccc3)OC2C1O` (configuration not stated), which logP is on record?
Its logP is 1.15.

Which logP does the source give for `CC(C)COCC(C)C` here?
The logP was 2.78.

With `O=C(O)c1nc(Cl)ccc1Cl` as the molecule, how does the logP read?
Its logP is 1.06.

For `COc1cc(Cl)c(Cl)cc1Cl`, which logP is on record?
The logP was 3.85.

With `CC(=O)Oc1ccc(OCCN(C)C)cc1C` as the molecule, how does the logP read?
The logP was 1.64.

For `O=[N+]([O-])c1ccc(Cl)c([N+](=O)[O-])c1`, which logP is on record?
Its logP is 2.17.

Same assay, conditions: 20 °C

With `CNC(=N)N` as the molecule, how does the solubility read?
Its solubility is 24.4 mM (≈ 1780 µg/mL).

For `COCc1cnc(C2=NC(C)(C(C)C)C(=O)N2)c(C(=O)O)c1` (configuration not stated), which solubility is on record?
Its solubility is 14.5 mM (≈ 4410 µg/mL).

With `COP(=O)(OC)OC(=CCl)c1cc(Cl)c(Cl)cc1Cl` as the molecule, how does the solubility read?
Its solubility is 0.0301 mM (≈ 11 µg/mL).

With `CCC(CO)[N+](=O)[O-]` (configuration not stated) as the molecule, how does the solubility read?
The solubility was 453 mM (≈ 54000 µg/mL).

Same assay, conditions: 23 °C

Which solubility does the source give for `C[Si]1(C)O[Si](C)(C)O[Si](C)(C)O[Si](C)(C)O[Si](C)(C)O1` here?
The solubility was 4.58e-05 mM (≈ 0.017 µg/mL).

Same assay, conditions: 23.0 °C

For `CCC(=O)CO`, which log10 OH rate constant (cm³/molecule/s) is on record?
The log10 OH rate constant (cm³/molecule/s) was -11.1.

Which log10 OH rate constant (cm³/molecule/s) does the source give for `CCCCCC=O` here?
Its log10 OH rate constant (cm³/molecule/s) is -10.5.

Which log10 OH rate constant (cm³/molecule/s) does the source give for `CC(=O)C(C)O` (configuration not stated) here?
Its log10 OH rate constant (cm³/molecule/s) is -11.

Same assay, conditions: 24 °C

Which solubility does the source give for `O=NN1CCCCCC1` here?
The solubility was 99.9 mM (≈ 12800 µg/mL).

Which solubility does the source give for `CCCN(CCC)N=O` here?
The solubility was 99.9 mM (≈ 13000 µg/mL).

Which solubility does the source give for `CN(Cc1ccccc1)N=O` here?
The solubility was 30 mM (≈ 4510 µg/mL).

For `Clc1cc(Cl)c(-c2cc(Cl)c(Cl)cc2Cl)cc1Cl`, which solubility is on record?
The solubility was 2.63e-06 mM (≈ 0.00095 µg/mL).

For `CCCCN(CCCC)N=O`, which solubility is on record?
Its solubility is 8.03 mM (≈ 1270 µg/mL).

Same assay, conditions: 24.0 °C

For `C[Si](C)(C)C`, which log10 OH rate constant (cm³/molecule/s) is on record?
The log10 OH rate constant (cm³/molecule/s) was -12.

Same assay, conditions: 25 °C

Which solubility does the source give for `BrC1CCCCC1` here?
The solubility was 5.08 mM (≈ 828 µg/mL).

With `O=[N+]([O-])c1c2ccccc2cc2ccccc12` as the molecule, how does the solubility read?
The solubility was 0.000511 mM (≈ 0.114 µg/mL).

With `Clc1ccc(-c2ccc(Cl)c(Cl)c2Cl)cc1Cl` as the molecule, how does the solubility read?
The solubility was 1.04e-05 mM (≈ 0.0034 µg/mL).

Which solubility does the source give for `Cc1ccc2cc3c(ccc4ccccc43)c3c2c1CC3` here?
The solubility was 1.08e-05 mM (≈ 0.0029 µg/mL).

With `Cc1ncc(CO)c(CN)c1O` as the molecule, how does the solubility read?
The solubility was 2970 mM (≈ 500000 µg/mL).

With `CCC(C)=NO` as the molecule, how does the solubility read?
The solubility was 1150 mM (≈ 100000 µg/mL).

Which solubility does the source give for `OCCNc1ccccc1` here?
Its solubility is 335 mM (≈ 46000 µg/mL).

Which solubility does the source give for `Nc1ccn([C@H]2CC[C@@H](CO)O2)c(=O)n1` here?
Its solubility is 362 mM (≈ 76400 µg/mL).

With `Cc1cc(Cl)ccc1O` as the molecule, how does the solubility read?
The solubility was 28.1 mM (≈ 4000 µg/mL).

For `CCOc1nc(F)cc2nc(S(=O)(=O)Nc3c(Cl)cccc3C(=O)OC)nn12`, which solubility is on record?
The solubility was 0.0372 mM (≈ 16 µg/mL).

With `CCCCCCCCCl` as the molecule, how does the solubility read?
Its solubility is 0.0329 mM (≈ 4.89 µg/mL).

With `C=C(C)C(=C)C` as the molecule, how does the solubility read?
Its solubility is 3.97 mM (≈ 327 µg/mL).

For `Clc1ccc2ccccc2c1`, which solubility is on record?
Its solubility is 0.0719 mM (≈ 11.7 µg/mL).

For `CCOC(=O)[C@H](CCc1ccccc1)N[C@@H](C)C(=O)N1CCC[C@H]1C(=O)O`, which solubility is on record?
The solubility was 43.6 mM (≈ 16400 µg/mL).

With `Nc1ccc(-c2ccc(N)c(Cl)c2)cc1Cl` as the molecule, how does the solubility read?
Its solubility is 0.0122 mM (≈ 3.1 µg/mL).

Which solubility does the source give for `CCc1ccccc1O` here?
Its solubility is 43.7 mM (≈ 5340 µg/mL).

For `CCF`, which solubility is on record?
The solubility was 44.9 mM (≈ 2160 µg/mL).

Same assay, conditions: 25.0 °C

With `Clc1c(Cl)c(Cl)c(Cl)c(Cl)c1Cl` as the molecule, how does the log10 OH rate constant (cm³/molecule/s) read?
Its log10 OH rate constant (cm³/molecule/s) is -13.6.

Which log10 OH rate constant (cm³/molecule/s) does the source give for `O=CCCl` here?
Its log10 OH rate constant (cm³/molecule/s) is -11.5.

With `COC(=O)C(C)O` (configuration not stated) as the molecule, how does the log10 OH rate constant (cm³/molecule/s) read?
Its log10 OH rate constant (cm³/molecule/s) is -11.6.

With `O=CC(F)(F)F` as the molecule, how does the log10 OH rate constant (cm³/molecule/s) read?
Its log10 OH rate constant (cm³/molecule/s) is -12.2.

With `C[Si]1(C)O[Si](C)(C)O[Si](C)(C)O[Si](C)(C)O[Si](C)(C)O1` as the molecule, how does the log10 OH rate constant (cm³/molecule/s) read?
Its log10 OH rate constant (cm³/molecule/s) is -11.8.

For `FC(F)(F)COCC(F)(F)F`, which log10 OH rate constant (cm³/molecule/s) is on record?
The log10 OH rate constant (cm³/molecule/s) was -12.8.

With `C=C(C)C(=O)OC` as the molecule, how does the log10 OH rate constant (cm³/molecule/s) read?
Its log10 OH rate constant (cm³/molecule/s) is -10.6.

With `CCBr` as the molecule, how does the log10 OH rate constant (cm³/molecule/s) read?
The log10 OH rate constant (cm³/molecule/s) was -12.5.

Which log10 OH rate constant (cm³/molecule/s) does the source give for `CI` here?
The log10 OH rate constant (cm³/molecule/s) was -13.1.

With `CCOC(=O)NC` as the molecule, how does the log10 OH rate constant (cm³/molecule/s) read?
Its log10 OH rate constant (cm³/molecule/s) is -11.1.

For `CCOCC=O`, which log10 OH rate constant (cm³/molecule/s) is on record?
Its log10 OH rate constant (cm³/molecule/s) is -10.8.

Same assay, conditions: 27.0 °C

For `CCc1ccco1`, which log10 OH rate constant (cm³/molecule/s) is on record?
The log10 OH rate constant (cm³/molecule/s) was -9.97.

Which log10 OH rate constant (cm³/molecule/s) does the source give for `CCC(=O)NC` here?
Its log10 OH rate constant (cm³/molecule/s) is -11.1.

Same assay, conditions: 30 °C

Which solubility does the source give for `CNC(=O)Oc1cccc(C(C)C)c1` here?
The solubility was 0.44 mM (≈ 85 µg/mL).
